Experimental data from patent US6355658B1, “Coumarin derivatives, methods of preparation and application as medicines” (Centre National de la Recherche Scientifique, priority 1997, dated 2002).
Like-named read-outs stand apart in the source and are kept apart here.

Legend:
bovine α-chymotrypsin = target: T1, bovine α-chymotrypsin (Bos taurus, UniProt P00766); test: Inactivation kinetics of bovine α-chymotrypsin (chromogenic substrate Suc-Ala2-Pro-Phe-pNA); assay type: biochemical; conditions: 25° C., pH 7.5, N.I. = non-inactivator; for kinact/KI: read-out: Ki/KI or kobs/[I], α-CT
T1 construct: bovine α-chymotrypsin
Protocol: (§1) The inactivating or inhibitory properties of the coumarin derivatives were tested with respect to a certain number of enzymes: human leukocyte elastase, bovine α-chymotrypsin, human thrombin and bovine trypsin. The kinetic measurements were taken at 25° C. in the following buffers: 0.1 M Hepes, 0.5 M NaCl, 0.01% Tween 80, pH 8.0 (human leukocyte elastase); 0.025 M NaH2PO4, 0.05 M KCl, pH 7.5 (α-chymotrypsin); 0.01 M Tris, 0.01 M Hepes, 0.1 M NaCl, 0.1% PEG-6000, pH 7.5 (human thrombin); 0.1 M Tris, 0.01 M CaCl2, pH 7.5 (bovine trypsin). The chromogenic substrates used to determine the activity of the enzymes are: MeOSuc-Ala2-Pro-Val-pNA (human leukocyte elastase); Suc-Ala2-Pro-Phe-pNA (α-chymotrypsin); H-D-Phe-Pip-Arg-pNA (human thrombin); N-benzoyl-Arg-pNA (bovine trypsin) (pNA: para-nitroaniline).
(§2) The interaction of a suicide substrate with a serine protease corresponds to the minimum reaction scheme described in equation 1 in which E represents the enzyme, I represents the inhibitor, E-I represents the acyl-enzyme and E-I′ represents the inactivated enzyme [Silverman R. B., 1988, “Mechanism-based enzyme inactivation: chemistry and enzymology”, volume 1 CRC Press, Boca Raton, Fla.]: [drawing 76]
(§3) When k4 is small compared to k3, equation 1 can be simplified (equation 2, [Daniels et al., 1983, J. Biol. Chem., 258: 15046-15053]): [drawing 77]
(§4) Considering the first instants of the reaction, the system reduces to a simplified equation of the form of equation 2.
(§5) The kinetic constants characterizing the inactivation of the enzymes with the coumarin derivatives were determined using either the conventional sampling method (or batchwise method) or a method placing the inhibitor and the substrate in competition (or continuous method); these methods are described by Pochet et al. [Pochet et al., 1996, J. Med. Chem., 39: 2579-2585].
(§6) The inactivation of serine proteaaes with the coumarin derivatives is thus characterized by the following constants (see Eq. 2):
(§7) KI: apparent dissociation constant of an enzyme-inhibitor complex located upstream of ki
(§8) ki: first-order rate constant for inactivation at infinite inhibitor concentration
(§9) ki/KI: index of the overall inactivating efficacy of the inhibitor.

human leukocyte elastase = target: T2, human leukocyte elastase (Homo sapiens, UniProt P08246); test: Inactivation kinetics of human leukocyte elastase (chromogenic substrate MeOSuc-Ala2-Pro-Val-pNA); assay type: biochemical
T2 sequence (P08246 30-247 limits assumed): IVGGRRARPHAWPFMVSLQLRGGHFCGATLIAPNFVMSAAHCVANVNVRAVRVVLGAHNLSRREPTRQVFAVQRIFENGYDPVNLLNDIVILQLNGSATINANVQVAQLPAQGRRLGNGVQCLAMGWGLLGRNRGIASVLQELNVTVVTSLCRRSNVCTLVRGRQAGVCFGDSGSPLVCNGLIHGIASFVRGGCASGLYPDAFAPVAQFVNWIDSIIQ
Protocol: as §1, §2, §3, §4, §5, §6, §7, §8, §9

human thrombin = target: T3, human thrombin (Homo sapiens, UniProt P00734); test: Inactivation kinetics of human thrombin (chromogenic substrate H-D-Phe-Pip-Arg-pNA); assay type: biochemical; conditions: 25° C., pH 7.5, N.I. = non-inactivator
T3 construct: human thrombin
Protocol: as §1, §2, §3, §4, §5, §6, §7, §8, §9

bovine trypsin = target: T4, bovine trypsin (Bos taurus, UniProt P00760); test: Inactivation kinetics of bovine trypsin (chromogenic substrate N-benzoyl-Arg-pNA); assay type: biochemical; conditions: 25° C., pH 7.5, N.I. = non-inactivator
T4 sequence (P00760 24-246): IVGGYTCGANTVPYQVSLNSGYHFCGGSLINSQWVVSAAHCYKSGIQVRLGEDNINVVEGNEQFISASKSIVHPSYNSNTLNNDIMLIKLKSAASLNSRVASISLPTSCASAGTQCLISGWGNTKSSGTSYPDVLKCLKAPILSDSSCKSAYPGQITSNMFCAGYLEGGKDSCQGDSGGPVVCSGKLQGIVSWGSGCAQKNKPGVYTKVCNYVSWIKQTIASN
Protocol: as §1, §2, §3, §4, §5, §6, §7, §8, §9

[1] = TABLE 5, phenyl esters, without 6-chloromethyl: inactivation phase of transient inactivation
[2] = TABLE 5, phenyl esters, inactivation phase
[3] = TABLE 5, phenyl esters, 25° C., pH 8.0, inactivation phase, N.I. = non-inactivator, read-out: Ki/KI or kobs/[I], HLE
[4] = TABLE 3, no chloromethyl in position 6
[5] = TABLE 3, no chloromethyl in position 6, 25° C., pH 8.0, inactivation phase of transient inactivation, read-out: Ki/KI or kobs/[I], LHE
[6] = TABLE 1, 2-pyridyl esters, 25° C., pH 8.0, inactivation phase of transient inactivation, read-out: Ki/KI or kobs/[I], LHE
[7] = TABLE 1, 25° C., pH 8.0, inactivation phase

With `O=C(Sc1ccccc1)c1cc2cc(CCl)ccc2oc1=O` [III1, S-phenyl 6-chloromethyl-2-oxo-2H-1-benzopyran-3-carbothioate] the kinact/KI (bovine α-chymotrypsin; [1]) was 39000 M⁻¹ s⁻¹ and the “Ki/KI or kobs/[I], HLE” value (human leukocyte elastase; TABLE 5, phenyl esters, 25° C., pH 8.0, inactivation phase, N.I. = non-inactivator) was “N.I”.

In the case of `O=C(Sc1cccc(Cl)c1)c1cc2cc(CCl)ccc2oc1=O` [III2, S-(3-chlorophenyl) 6-chloromethyl-2-oxo-2H-1-benzopyran-3-carbothioate], the “Ki/KI or kobs/[I], Thrombin” value (human thrombin; [2]) is reported as “— N.I”, the kinact/KI (bovine α-chymotrypsin; [1]) is reported as 730000 M⁻¹ s⁻¹ and the kinact/KI (human leukocyte elastase; [3]) is reported as under 200 M⁻¹ s⁻¹. The melting point was 194 to 195 °C.

In the case of `O=C(Oc1cncc(Cl)c1)c1cc2ccccc2oc1=O` [Ia3, 5-chloro-3-pyridyl 2-oxo-2H-1-benzopyran-3-carboxylate], the “Ki/KI or kobs/[I], Thrombin” value (human thrombin; TABLE 3) is reported as “N.I. N.I. N.I. N.I. N.I. N.I. N.I. N.I. —”, the “Ki/KI or kobs/[I], α-CT” value (bovine α-chymotrypsin; [4]) is reported as “N.I.^a N.I. N.I. N.I. N.I. N.I. N.I. N.I” and the kinact/KI (human leukocyte elastase; [5]) is reported as 32800 M⁻¹ s⁻¹. For the same compound, the “Ki/KI or kobs/[I], Trypsin” value (bovine trypsin; TABLE 3) was “N.I. N.I. N.I. N.I. N.I. N.I. N.I. — —”.

For `O=C(Oc1cc(Cl)ccc1Cl)c1cc2ccccc2oc1=O` [Ia4, 2,5-dichlorophenyl 2-oxo-2H-1-benzopyran-3-carboxylate], the “Ki/KI or kobs/[I], Thrombin” value (human thrombin; [2]) was “N.I”, the kinact/KI (human leukocyte elastase; [3]) was 5800 M⁻¹ s⁻¹ and the melting point was 189 to 192 °C.

For `Cc1ccc2oc(=O)c(C(=O)Oc3cccc(Cl)c3)cc2c1` [Ib1, 3-chlorophenyl 6-methyl-2-oxo-2H-1-benzopyran-3-carboxylate], the kinact/KI (bovine α-chymotrypsin; [1]) was 9400 M⁻¹ s⁻¹, the kinact/KI (human leukocyte elastase; [3]) was 1100 M⁻¹ s⁻¹ and the melting point was 175 to 176 °C.

With `Cc1ccc2oc(=O)c(C(=O)Oc3cncc(Cl)c3)cc2c1` [Ib2, 5-chloro-3-pyridyl 6-methyl-2-oxo-2H-1-benzopyran-3-carboxylate] the “Ki/KI or kobs/[I], Thrombin” value (human thrombin; TABLE 3) was “N.I. N.I. N.I. N.I. N.I. N.I. N.I. N.I. —”, the “Ki/KI or kobs/[I], Thrombin” value (human thrombin; second table headed TABLE 3) was “N.I. N.I. N.I. N.I. N.I. N.I. N.I. N.I. —” and the “Ki/KI or kobs/[I], α-CT” value (bovine α-chymotrypsin; [4]) was “N.I.^a N.I. N.I. N.I. N.I. N.I. N.I. N.I”. The “Ki/KI or kobs/[I], α-CT” value (bovine α-chymotrypsin; second table headed TABLE 3) was “N.I.^a N.I. N.I. N.I. N.I. N.I. N.I. N.I”, the kinact/KI (human leukocyte elastase; [5]) was 32500 M⁻¹ s⁻¹ and the “Ki/KI or kobs/[I], LHE” value (human leukocyte elastase; TABLE 3, 25° C., pH 8.0, inactivation phase) was 32500 M⁻¹ s⁻¹. For the same compound, the “half-reactivation time for the enzyme” value (human leukocyte elastase; compound 750 nM, HLE 100 nM) was 35 min, the “time during which the inhibition remains at 90%” value (human leukocyte elastase; compound 750 nM, HLE 100 nM) was 80 min and the inhibition at 0.75 µM (human leukocyte elastase; compound 750 nM, HLE 100 nM, reached in less than one minute) was 90%. The melting point was 215 to 217 °C, the “Ki/KI or kobs/[I], Trypsin” value (bovine trypsin; TABLE 3) was “N.I. N.I. N.I. N.I. N.I. N.I. N.I. — —” and the “Ki/KI or kobs/[I], Trypsin” value (bovine trypsin; second table headed TABLE 3) was “N.I. N.I. N.I. N.I. N.I. N.I. N.I. — —”.

With `O=C(Oc1cccc(Cl)n1)c1cc2cc(CCl)ccc2oc1=O` [Ic′″12, 6-chloro-2-pyridyl 6-chloromethyl-2-oxo-2H-1-benzopyran-3-carboxylate] the kinact/KI (human thrombin; TABLE 1, 2-pyridyl esters, inactivation phase, read-out: Ki/KI or kobs/[I], Thrombin) was 7200 M⁻¹ s⁻¹, the “Ki/KI or kobs/[I], Thrombin” value (human thrombin; TABLE 1, inactivation phase) was 7200 M⁻¹ s⁻¹ and the kinact/KI (bovine α-chymotrypsin; TABLE 1, 2-pyridyl esters) was 107000 M⁻¹ s⁻¹. For the same compound, the kinact/KI (human leukocyte elastase; [6]) was 26000 M⁻¹ s⁻¹, the “Ki/KI or kobs/[I], LHE” value (human leukocyte elastase; [7]) was 26000 M⁻¹ s⁻¹ and the melting point was 172 to 173 °C.

In the case of `O=C(Oc1ccc(Cl)cn1)c1cc2cc(CCl)ccc2oc1=O` [Ic′″13, 5-chloro-2-pyridyl 6-chloromethyl-2-oxo-2H-1-benzopyran-3-carboxylate], the “Ki/KI or kobs/[I], Thrombin” value (human thrombin; TABLE 1, 2-pyridyl esters, inactivation phase) is reported as “N.I”, the “Ki/KI or kobs/[I], Thrombin” value (human thrombin; TABLE 1, inactivation phase) is reported as “N.I” and the kinact/KI (bovine α-chymotrypsin; TABLE 1, 2-pyridyl esters) is reported as about 2500 M⁻¹ s⁻¹. The kinact/KI (human leukocyte elastase; [6]) was 110 M⁻¹ s⁻¹, the “Ki/KI or kobs/[I], LHE” value (human leukocyte elastase; [7]) was 110 M⁻¹ s⁻¹ and the melting point was 171 to 172 °C.

For `O=C(Oc1ccccc1[N+](=O)[O-])c1cc2cc(CCl)ccc2oc1=O` [Ic″1, 2-nitrophenyl 6-chloromethyl-2-oxo-2H-1-benzopyran-3-carboxylate], the kinact/KI (bovine α-chymotrypsin; [1]) was 9300 M⁻¹ s⁻¹, the kinact/KI (human leukocyte elastase; [3]) was 1250 M⁻¹ s⁻¹ and the melting point was 163 to 164 °C.
